Patent US20230000813A1, “COMPOUND FOR THE TREATMENT OF BOVINE OR SWINE RESPIRATORY DISEASE” (Intervet Inc., priority 2016, published 2023)
In brackets after ≈: the same amount, converted by molar mass.

Test system: Mannheimia haemolytica MH 6374 (ATCC 33396, reference strain)
Experiment: MIC, broth-microdilution (CLSI VET01-A4)
Assay type: cell-based
Settings: Mannheimia haemolytica MH 6374
Description: (§1) The Minimum inhibitory concentrations (MIC) of compounds according to the invention for a number of veterinary bacterial pathogens were determined by the broth-microdilution method according to CLSI document VET01-A4.
(§2) Microdilution trays containing a doubling dilution series of the test compound were used for the tests. The MIC results were interpreted according to the CLSI documents VET01-S3. The lowest concentration of compound at which no visible growth (i.e. no turbidity) detected by the unaided eye was recorded as the MIC.
(§3) The Minimum inhibitory concentrations (MIC) of compounds according to the invention were determined by the broth-microdilution method according to CLSI document VET01-A4.
(§4) Microdilution trays containing a doubling dilution series of the test compound were used for the tests.
(§5) The MIC results were interpreted according to the CLSI documents VET01-S3. The lowest concentration of compound at which no visible growth (i.e. no turbidity) detected by the unaided eye was recorded as the MIC.

Structure (SMILES) | MIC MH 6374
Cc1ccc(CNCc2ccc(C#Cc3ccc(C(=O)N[C@H](C(=O)NO)[C@@H](C)O)cc3)s2)cc1 [Compound 411] | <=0.1 μM
C[C@@H](O)[C@H](NC(=O)c1ccc(C#Cc2ccc(CNCc3cccs3)s2)cc1)C(=O)NO [Compound 410] | <=0.1 μM
C[C@@H](O)[C@H](NC(=O)c1ccc(C#Cc2ccc(CNCc3ccco3)s2)cc1)C(=O)NO [Compound 409] | <=0.1 μM

Same assay, conditions: Mannheimia haemolytica MH 6374; read-out: MIC MH 6374

Structure (SMILES) | MIC [µM]
C[C@@H](O)[C@H](NC(=O)c1ccc(C#Cc2ccc(CN(C)Cc3ccccc3)s2)cc1)C(=O)NO [Compound 196] | 0.8 (≈ 0.382 µg/mL)
Cc1ccc(CNCc2ccc(C#Cc3ccc(C(=O)NC(C(=O)NO)C(C)(C)O)cc3)cc2)cc1 (centres unmarked) [Compound 579] | 0.4 (≈ 0.194 µg/mL)

Test system: Pasteurella multocida PM 12080 (IV102277-0093, BRD field isolate)
Experiment: MIC, broth-microdilution (CLSI VET01-A4)
Assay type: cell-based
Settings: Pasteurella multocida PM 12080
Description: as §1, §2, §3, §4, §5

Structure (SMILES) | MIC PM 12080
C[C@@H](O)[C@H](NC(=O)c1ccc(C#Cc2ccc(CN(C)Cc3ccccc3)s2)cc1)C(=O)NO [Compound 196] | <=0.1 μM
Cc1ccc(CNCc2ccc(C#Cc3ccc(C(=O)NC(C(=O)NO)C(C)(C)O)cc3)cc2)cc1 (centres unmarked) [Compound 579] | <=0.1 μM
Cc1ccc(CNCc2ccc(C#Cc3ccc(C(=O)N[C@H](C(=O)NO)[C@@H](C)O)cc3)s2)cc1 [Compound 411] | <=0.1 μM
C[C@@H](O)[C@H](NC(=O)c1ccc(C#Cc2ccc(CNCc3cccs3)s2)cc1)C(=O)NO [Compound 410] | <=0.1 μM
C[C@@H](O)[C@H](NC(=O)c1ccc(C#Cc2ccc(CNCc3ccco3)s2)cc1)C(=O)NO [Compound 409] | <=0.1 μM

Test system: Pasteurella multocida PM 6391 (ATCC 43137, reference strain)
Experiment: MIC, broth-microdilution (CLSI VET01-A4)
Assay type: cell-based
Settings: Pasteurella multocida PM 6391
Description: as §1, §2, §3, §4, §5

Structure (SMILES) | MIC PM 6391
C[C@@H](O)[C@H](NC(=O)c1ccc(C#Cc2ccc(CN(C)Cc3ccccc3)s2)cc1)C(=O)NO [Compound 196] | <=0.1 μM
Cc1ccc(CNCc2ccc(C#Cc3ccc(C(=O)N[C@H](C(=O)NO)[C@@H](C)O)cc3)s2)cc1 [Compound 411] | <=0.1 μM
C[C@@H](O)[C@H](NC(=O)c1ccc(C#Cc2ccc(CNCc3cccs3)s2)cc1)C(=O)NO [Compound 410] | <=0.1 μM
C[C@@H](O)[C@H](NC(=O)c1ccc(C#Cc2ccc(CNCc3ccco3)s2)cc1)C(=O)NO [Compound 409] | <=0.1 μM

Same assay, conditions: Pasteurella multocida PM 6391; read-out: MIC PM 6391

Structure (SMILES) | MIC [µM]
Cc1ccc(CNCc2ccc(C#Cc3ccc(C(=O)NC(C(=O)NO)C(C)(C)O)cc3)cc2)cc1 (centres unmarked) [Compound 579] | 0.2 (≈ 0.0971 µg/mL)

Test system: Mannheimia haemolytica MH 10720 (154, BRD field isolate)
Experiment: MIC, broth-microdilution (CLSI VET01-A4)
Assay type: cell-based
Settings: Mannheimia haemolytica MH 10720
Description: as §1, §2, §3, §4, §5

Structure (SMILES) | MIC MH 10720
C[C@@H](O)[C@H](NC(=O)c1ccc(C#Cc2ccc(CN(C)Cc3ccccc3)s2)cc1)C(=O)NO [Compound 196] | <=0.1 μM
Cc1ccc(CNCc2ccc(C#Cc3ccc(C(=O)NC(C(=O)NO)C(C)(C)O)cc3)cc2)cc1 (centres unmarked) [Compound 579] | <=0.1 μM

Test system: Pasteurella multocida PM 6267 (P 2225 (L386), reference strain, mouse infection strain)
Experiment: MIC, broth-microdilution (CLSI VET01-A4)
Assay type: cell-based
Settings: Pasteurella multocida PM 6267
Description: as §1, §2, §3, §4, §5

Structure (SMILES) | MIC PM 6267
C[C@@H](O)[C@H](NC(=O)c1ccc(C#Cc2ccc(CN(C)Cc3ccccc3)s2)cc1)C(=O)NO [Compound 196] | <=0.1 μM
Cc1ccc(CNCc2ccc(C#Cc3ccc(C(=O)NC(C(=O)NO)C(C)(C)O)cc3)cc2)cc1 (centres unmarked) [Compound 579] | <=0.1 μM
Cc1ccc(CNCc2ccc(C#Cc3ccc(C(=O)N[C@H](C(=O)NO)[C@@H](C)O)cc3)s2)cc1 [Compound 411] | <=0.1 μM
C[C@@H](O)[C@H](NC(=O)c1ccc(C#Cc2ccc(CNCc3cccs3)s2)cc1)C(=O)NO [Compound 410] | <=0.1 μM
C[C@@H](O)[C@H](NC(=O)c1ccc(C#Cc2ccc(CNCc3ccco3)s2)cc1)C(=O)NO [Compound 409] | <=0.1 μM

Test system: Mannheimia haemolytica MH 6357 (M7/2, reference strain, cattle infection strain)
Experiment: MIC, broth-microdilution (CLSI VET01-A4)
Assay type: cell-based
Settings: Mannheimia haemolytica MH 6357
Description: as §1, §2, §3, §4, §5

Structure (SMILES) | MIC MH 6357
C[C@@H](O)[C@H](NC(=O)c1ccc(C#Cc2ccc(CNCc3cccs3)s2)cc1)C(=O)NO [Compound 410] | <=0.1 μM

Same assay, conditions: Mannheimia haemolytica MH 6357; read-out: MIC MH 6357

Structure (SMILES) | MIC [µM]
C[C@@H](O)[C@H](NC(=O)c1ccc(C#Cc2ccc(CN(C)Cc3ccccc3)s2)cc1)C(=O)NO [Compound 196] | 0.4 (≈ 0.191 µg/mL)
Cc1ccc(CNCc2ccc(C#Cc3ccc(C(=O)NC(C(=O)NO)C(C)(C)O)cc3)cc2)cc1 (centres unmarked) [Compound 579] | 0.8 (≈ 0.388 µg/mL)
Cc1ccc(CNCc2ccc(C#Cc3ccc(C(=O)N[C@H](C(=O)NO)[C@@H](C)O)cc3)s2)cc1 [Compound 411] | 0.2 (≈ 0.0955 µg/mL)
C[C@@H](O)[C@H](NC(=O)c1ccc(C#Cc2ccc(CNCc3ccco3)s2)cc1)C(=O)NO [Compound 409] | 0.2 (≈ 0.0907 µg/mL)

Test system: Mannheimia haemolytica MH 12587 (1071, BRD field isolate, macrolide-resistance: erm+, E+)
Experiment: MIC, broth-microdilution (CLSI VET01-A4)
Assay type: cell-based
Settings: Mannheimia haemolytica MH 12587, macrolide-resistant
Description: as §1, §2, §3, §4, §5

Structure (SMILES) | MIC MH 12587 [µM]
C[C@@H](O)[C@H](NC(=O)c1ccc(C#Cc2ccc(CN(C)Cc3ccccc3)s2)cc1)C(=O)NO [Compound 196] | 1.6 (≈ 0.764 µg/mL)
Cc1ccc(CNCc2ccc(C#Cc3ccc(C(=O)NC(C(=O)NO)C(C)(C)O)cc3)cc2)cc1 (centres unmarked) [Compound 579] | 1.6 (≈ 0.777 µg/mL)
Cc1ccc(CNCc2ccc(C#Cc3ccc(C(=O)N[C@H](C(=O)NO)[C@@H](C)O)cc3)s2)cc1 [Compound 411] | 0.4 (≈ 0.191 µg/mL)
C[C@@H](O)[C@H](NC(=O)c1ccc(C#Cc2ccc(CNCc3cccs3)s2)cc1)C(=O)NO [Compound 410] | 0.2 (≈ 0.0939 µg/mL)
C[C@@H](O)[C@H](NC(=O)c1ccc(C#Cc2ccc(CNCc3ccco3)s2)cc1)C(=O)NO [Compound 409] | 0.4 (≈ 0.181 µg/mL)

Test system: Pasteurella multocida PM 10775 (080130003051, BRD field isolate)
Experiment: MIC, broth-microdilution (CLSI VET01-A4)
Assay type: cell-based
Settings: Pasteurella multocida PM 10775
Description: as §1, §2, §3, §4, §5

Structure (SMILES) | MIC PM 10775
C[C@@H](O)[C@H](NC(=O)c1ccc(C#Cc2ccc(CN(C)Cc3ccccc3)s2)cc1)C(=O)NO [Compound 196] | <=0.1 μM
Cc1ccc(CNCc2ccc(C#Cc3ccc(C(=O)NC(C(=O)NO)C(C)(C)O)cc3)cc2)cc1 (centres unmarked) [Compound 579] | <=0.1 μM
Cc1ccc(CNCc2ccc(C#Cc3ccc(C(=O)N[C@H](C(=O)NO)[C@@H](C)O)cc3)s2)cc1 [Compound 411] | <=0.1 μM
C[C@@H](O)[C@H](NC(=O)c1ccc(C#Cc2ccc(CNCc3cccs3)s2)cc1)C(=O)NO [Compound 410] | <=0.1 μM
C[C@@H](O)[C@H](NC(=O)c1ccc(C#Cc2ccc(CNCc3ccco3)s2)cc1)C(=O)NO [Compound 409] | <=0.1 μM

Test system: Mannheimia haemolytica MH 13065 (XB0446-6003.9, BRD field isolate)
Experiment: MIC, broth-microdilution (CLSI VET01-A4)
Assay type: cell-based
Settings: not given
Description: as §1, §2

Structure (SMILES) | MIC [µM] | MIC MH 13065
C[C@@H](O)[C@H](NC(=O)c1ccc(C#Cc2ccc(CN(C)Cc3ccccc3)s2)cc1)C(=O)NO [Compound 196] | 0.8 (≈ 0.382 µg/mL) | 
Cc1ccc(CNCc2ccc(C#Cc3ccc(C(=O)NC(C(=O)NO)C(C)(C)O)cc3)cc2)cc1 (centres unmarked) [Compound 579] | 0.4 (≈ 0.194 µg/mL) | 
Cc1ccc(CNCc2ccc(C#Cc3ccc(C(=O)N[C@H](C(=O)NO)[C@@H](C)O)cc3)s2)cc1 [Compound 411] |  | <=0.1 μM
C[C@@H](O)[C@H](NC(=O)c1ccc(C#Cc2ccc(CNCc3cccs3)s2)cc1)C(=O)NO [Compound 410] |  | <=0.1 μM
C[C@@H](O)[C@H](NC(=O)c1ccc(C#Cc2ccc(CNCc3ccco3)s2)cc1)C(=O)NO [Compound 409] |  | <=0.1 μM

Test system: Mannheimia haemolytica MH 13093 (XB0472-6014.1, BRD field isolate)
Experiment: MIC, broth-microdilution (CLSI VET01-A4)
Assay type: cell-based
Settings: not given
Description: as §1, §2

Structure (SMILES) | MIC [µM] | MIC MH 13093
C[C@@H](O)[C@H](NC(=O)c1ccc(C#Cc2ccc(CN(C)Cc3ccccc3)s2)cc1)C(=O)NO [Compound 196] | 0.8 (≈ 0.382 µg/mL) | 
Cc1ccc(CNCc2ccc(C#Cc3ccc(C(=O)NC(C(=O)NO)C(C)(C)O)cc3)cc2)cc1 (centres unmarked) [Compound 579] | 0.8 (≈ 0.388 µg/mL) | 
Cc1ccc(CNCc2ccc(C#Cc3ccc(C(=O)N[C@H](C(=O)NO)[C@@H](C)O)cc3)s2)cc1 [Compound 411] | 0.2 (≈ 0.0955 µg/mL) | 
C[C@@H](O)[C@H](NC(=O)c1ccc(C#Cc2ccc(CNCc3cccs3)s2)cc1)C(=O)NO [Compound 410] |  | <=0.1 μM
C[C@@H](O)[C@H](NC(=O)c1ccc(C#Cc2ccc(CNCc3ccco3)s2)cc1)C(=O)NO [Compound 409] | 0.2 (≈ 0.0907 µg/mL) | 
